Series [1] concerns HepG2-A16-CD81EGFP cells. As to the kind of experiment: cells. The conditions noted are these: Homo sapiens; for IC50: HepG2, read-out: Tox IC50; for inhibition at 50 µM: HepG2, read-out: Tox max inhibition (%) @ 50 uM; for inhibition at 10 µM: HepG2, read-out: Tox max inhibition (%) @ 10 uM.
Series [2] relates to Plasmodium berghei (Pb-Luc) exoerythrocytic-stage parasites. As to the kind of experiment: microbe, parasite or virus in culture. To be noted: for inhibition at 10 µM: read-out: PbLuc max inhibition (%) @ 10 uM.
Series [3] concerns the target QuantiLum Recombinant Luciferase (Photinus pyralis, UniProt P08659). As to the kind of experiment: Bioluminescence quantification of compound luciferase inhibition. The conditions noted are these: for Emax: read-out: LucInhib max inhibition.
In series [4] the test system is HepG2-A16-CD81EGFP cells. The conditions noted are these: human, 50 uM.
Series [5] relates to HepG2-A16-CD81EGFP cells. As to the kind of experiment: cells. The conditions noted are these: Homo sapiens, HepG2, read-out: % inhibition.
The mark [6] stands for this setting: HepG2, read-out: HepG2 Tox% @ 50 uM rep1.
Setting [7] is: read-out: Inhibition% @ 50 uM rep1.
Where [8] appears, read: read-out: Inhibition% @ 50 uM rep2.
Where [9] appears, read: read-out: PbLuc IC50, dose response, unit inferred.
Where [10] appears, read: read-out: PbLuc max inhibition (%) @ 50 uM.
The mark [11] stands for this setting: read-out: PbLuc IC50, dose response, 1/3 dilutions, max conc. 10 or 50 uM, unit inferred.
Where [12] appears, read: HepG2, read-out: HepG2 Tox% @ 50 uM rep2.

Structures are written as SMILES. Where two headings read alike, the source gives them in different places.

The values below come from PMC4890880 (ACS infectious diseases, 2016).

Chain of QuantiLum Recombinant Luciferase (P08659 whole entry): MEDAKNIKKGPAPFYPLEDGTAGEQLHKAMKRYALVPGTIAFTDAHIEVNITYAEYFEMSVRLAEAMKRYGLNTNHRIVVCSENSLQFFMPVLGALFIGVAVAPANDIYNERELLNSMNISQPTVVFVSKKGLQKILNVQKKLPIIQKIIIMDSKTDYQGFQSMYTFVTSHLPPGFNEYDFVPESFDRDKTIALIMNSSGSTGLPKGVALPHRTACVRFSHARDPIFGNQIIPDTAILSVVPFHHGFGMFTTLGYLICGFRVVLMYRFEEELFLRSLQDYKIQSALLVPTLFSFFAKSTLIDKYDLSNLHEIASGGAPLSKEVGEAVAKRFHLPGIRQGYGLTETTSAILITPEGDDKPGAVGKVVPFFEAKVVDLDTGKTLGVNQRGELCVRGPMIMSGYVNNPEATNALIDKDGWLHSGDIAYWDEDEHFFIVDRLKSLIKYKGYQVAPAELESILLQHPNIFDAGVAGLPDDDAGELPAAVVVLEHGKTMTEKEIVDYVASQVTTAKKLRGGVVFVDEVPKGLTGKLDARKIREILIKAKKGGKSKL

By inhibition is commonly meant the relative decrease from the control value, in per cent. Consider `COc1ccc2c(c1OC)C(=O)N1c3ccccc3N=C(c3ccc(C)cc3)CC21` (stereo not shown) [MMV000917], for which, in series [1] (setting [6]), the cytotoxicity at 50 µM stood at 15%. For the same compound, the IC50 in series [1], in series [2] (setting [9]) and in series [3] was more than 50 µM in each case. For the same compound, the inhibition at 50 µM in series [1] came out at 7%; in series [2] (setting [7]), 96%; in series [2] (setting [8]) it was 95%; in series [2] (setting [10]), 96%. In addition, in series [3], the Emax turned out to be 23%.
With `CN1CCN(c2nc(Nc3ccc(O)cc3)nc3ccccc23)CC1` [MMV000986], the cytotoxicity at 50 µM in series [1] (setting [6]) is 25%. The IC50 in series [1] is more than 50 µM; in series [2] (setting [11]), 20.4 µM; in series [3] it was 21.9 µM. Also, the inhibition at 50 µM was 7% in series [1], 86% in series [2] (setting [7]), 90% in series [2] (setting [8]) and 94% in series [2] (setting [10]). Besides, in series [3], the Emax came out at 69%.
In the case of `COc1ccc(C)c2sc(N(Cc3cccnc3)C(=O)c3ccc(C#N)cc3)nc12` [MMV001241], in series [1] (setting [6]), the cytotoxicity at 50 µM was found to be 18%. The IC50 in series [1] was more than 50 µM; in series [2] (setting [9]), 21.5 µM; in series [3], more than 50 µM. The inhibition at 50 µM came to 22% in series [1], 100% in series [2] (setting [7]), 102% in series [2] (setting [8]) and 101% in series [2] (setting [10]). Besides, the Emax in series [3] worked out at 7%.
In the case of `O=C(NCc1ccco1)C1CCN(S(=O)(=O)c2ccc(Cl)cc2)CC1` [MMV006188], the figures for the cytotoxicity at 50 µM in series [1] (setting [6]) and in series [1] (setting [12]) were 22% and 28%, respectively. The IC50 was more than 50 µM in series [1], 0.707 µM in series [2] (setting [11]) and more than 50 µM in series [3]. Besides, the inhibition at 50 µM in series [1] came out at 28%; in series [2] (setting [7]), 102%; in series [2] (setting [8]), 102%; in series [2] (setting [10]), 106%. Besides, in series [3], the Emax was 22%.
Turning to `CCOC(=O)c1cnc2c(C)cccc2c1Nc1ccc(C(C)=O)cc1` [MMV006250], in series [1] (setting [6]), the cytotoxicity at 50 µM was determined as 18%. Further, the IC50 was more than 50 µM in series [1], 28.2 µM in series [2] (setting [9]) and more than 50 µM in series [3]. For the same compound, the inhibition at 50 µM in series [1] came out at 0%; in series [2] (setting [7]), 88%; in series [2] (setting [8]) it was 91%; in series [2] (setting [10]), 84%. For the same compound, the Emax in series [3] was determined as 27%.
On to `CCCCc1c(C)nc2c(OC)cccc2c1O` [MMV006820], for which the cytotoxicity at 50 µM was -15% in series [1] (setting [6]) and -12% in series [1] (setting [12]). The IC50 was more than 10 µM in series [1], 0.162 µM in series [2] (setting [11]) and more than 20 µM in series [3]. Moreover, the inhibition at 10 µM amounted to 15% in series [1] and 110% in series [2]. Further, the inhibition at 50 µM in series [2] (setting [7]) was found to be 99%; in series [2] (setting [8]), 102%. In addition, the Emax in series [3] came to 41%.
Regarding `C=CCc1c(C)nc2ccccc2c1O` [MMV006913], the cytotoxicity at 50 µM in series [1] (setting [6]) is -8%; in series [1] (setting [12]), -5%. Further, the IC50 in series [1] was more than 10 µM; in series [2] (setting [11]), 0.292 µM; in series [3] it was more than 20 µM. Besides, the inhibition at 10 µM is 15% in series [1] and 108% in series [2]. Also, the inhibition at 50 µM was 100% in series [2] (setting [7]) and 97% in series [2] (setting [8]). Moreover, the Emax in series [3] came to 38%.
As to `Cc1ccc(-c2cc3nc4c(c(O)n3n2)CCCC4)cc1` [MMV006937], the cytotoxicity at 50 µM is -11% in series [1] (setting [6]) and -9% in series [1] (setting [12]). The results for the IC50 in series [1], in series [2] (setting [11]) and in series [3] were more than 10 µM, 0.114 µM and 1.79 µM, respectively. In addition, the results for the inhibition at 10 µM in series [1] and in series [2] were 6.62% and 110%, respectively. Moreover, the inhibition at 50 µM in series [2] (setting [7]) is 103%; in series [2] (setting [8]), 102%. In addition, in series [3], the Emax was 92%.
For `CCOC(=O)c1cnc2ccc(CC)cc2c1O` [MMV007116], the cytotoxicity at 50 µM is -3.48% in series [1] (setting [6]) and -3.29% in series [1] (setting [12]). The IC50 in series [1] is more than 10 µM; in series [2] (setting [11]), 0.0491 µM; in series [3], more than 20 µM. The inhibition at 10 µM in series [1] came to 10%; in series [2] it was 110%. In addition, the inhibition at 50 µM in series [2] (setting [7]) came to 102%; in series [2] (setting [8]) it was 101%. In addition, the Emax in series [3] came to 17%.
`COc1ccccc1N1C(=N)SC(=Cc2ccc(OCc3ccccc3F)cc2)C1=O` [MMV007199]: in series [1] (setting [6]), the cytotoxicity at 50 µM stood at 14%. Besides, the IC50 is more than 50 µM in series [1], 1.82 µM in series [2] (setting [11]) and more than 50 µM in series [3]. Besides, the inhibition at 50 µM is 24% in series [1], 102% in series [2] (setting [7]), 101% in series [2] (setting [8]) and 106% in series [2] (setting [10]). The Emax in series [3] came to 25%.
Take `CN(C)c1ccc(N=Cc2ccc(N3CCOCC3)cc2)cc1` [MMV073843]: the “HepG2 Tox% @ 50 uM rep1” value in series [4] is listed as -8%. Besides, the inhibition at 50 µM in series [2] (setting [7]) is 88%; in series [2] (setting [8]), 83%; in series [5], -8.32%.
`CCOc1ccc(-n2cc(-c3ccccc3)c3c(SCc4cc(C)ccc4C)ncnc32)cc1` [MMV085471]: the “HepG2 Tox% @ 50 uM rep1” value in series [4] is -12%. In addition, the inhibition at 50 µM was 11% in series [2] (setting [7]), -7% in series [2] (setting [8]) and -12.2% in series [5].
In the case of `O=C(NC1CCN(Cc2ccccc2)CC1)c1cc2nc(-c3ccc(Cl)s3)cc(C(F)(F)F)n2n1` [MMV396635], the “HepG2 Tox% @ 50 uM rep1” value in series [4] is -30%. Besides, the inhibition at 50 µM is 7.6% in series [2] (setting [7]), 24% in series [2] (setting [8]) and -29.6% in series [5].
On to `CC1(c2ccccc2)Nc2ccccc2-c2nc3ccccc3n21` (stereo not shown) [MMV396715], for which the “HepG2 Tox% @ 50 uM rep2” value in series [4] was 102%. For the same compound, the inhibition at 50 µM in series [2] (setting [7]) amounted to 104%; in series [2] (setting [8]) it was 106%; in series [5] it was 98.6%.
Turning to `Oc1c(C(Nc2ccccn2)c2cccc(Oc3ccccc3)c2)ccc2cccnc12` (stereo not shown) [MMV665814], the “HepG2 Tox% @ 50 uM rep1” value in series [4] is on record as -17%. The inhibition at 50 µM in series [2] (setting [7]) was -33%; in series [2] (setting [8]), -6%; in series [5], -17.3%.
As to `CCC(c1ccccc1)c1nn2c(-c3cccs3)nnc2s1` (stereo not shown) [MMV665876], the “HepG2 Tox% @ 50 uM rep2” value in series [4] stood at 96%. For the same compound, the inhibition at 50 µM amounted to 99% in series [2] (setting [7]), 103% in series [2] (setting [8]) and 93.6% in series [5].
In the case of `O=C(Nc1cccc(-c2nc3ccccc3[nH]2)c1)c1cccc(NC(=O)c2ccco2)c1` [MMV665883], the “HepG2 Tox% @ 50 uM rep2” value in series [4] came to 99%. Further, the values for the inhibition at 50 µM in series [2] (setting [7]), in series [2] (setting [8]) and in series [5] were 101%, 102% and 97.2%, respectively.
As to `O=C(Nc1ccccc1O)c1ccc(Oc2cccc(C(=O)Nc3ccccc3O)c2)cc1` [MMV665888], in series [4], the “HepG2 Tox% @ 50 uM rep2” value is 100%. For the same compound, the results for the inhibition at 50 µM in series [2] (setting [7]), in series [2] (setting [8]) and in series [5] were 102%, 104% and 98.7%, respectively.
On to `COc1ccc(N2CCN(C(CNC(=O)CC(C)(C)C)c3ccc4c(c3)OCO4)CC2)cc1` (stereo not shown) [MMV665908], for which the “HepG2 Tox% @ 50 uM rep1” value in series [4] is -10%. Also, the results for the inhibition at 50 µM in series [2] (setting [7]), in series [2] (setting [8]) and in series [5] were 61%, 66% and -9.68%, respectively.
In the case of `CCC(C)NCC(O)(c1ccc(Cl)cc1)c1ccc(Cl)cc1` (stereo not shown) [MMV665928], in series [4], the “HepG2 Tox% @ 50 uM rep2” value came out at 102%. In addition, the inhibition at 50 µM was 104% in series [2] (setting [7]), 106% in series [2] (setting [8]) and 99.2% in series [5].
The corresponding values for `O=C(NCC1Cc2cccc(-c3ccncc3)c2O1)c1csc2c1CCCC2` (stereo not shown) [MMV665954] are 98%, 100%, 102% and 95.9%.
Regarding `CCOC(=O)C1=C(C)N=c2sc(=Cc3cc(Cl)ccc3O)c(=O)n2C1c1ccc(OC)cc1` (stereo not shown) [MMV665971], in series [4], the “HepG2 Tox% @ 50 uM rep1” value was determined as 100%. Besides, the inhibition at 50 µM came out at 103% in series [2] (setting [7]), 104% in series [2] (setting [8]) and 99.7% in series [5].
The corresponding values for `COc1ccc(-c2cc3c(nn2)-c2ccccc2C3=O)cc1` [MMV666026] are 21%, 61%, 71% and 21.5%.
For the compound `COCCNC(=O)c1ccc(OC2CCN(Cc3ccc(F)c(F)c3)CC2)c(Cl)c1` [MMV666072], in series [4], the “HepG2 Tox% @ 50 uM rep2” value turned out to be 97%. For the same compound, the values for the inhibition at 50 µM in series [2] (setting [7]), in series [2] (setting [8]) and in series [5] were 100%, 102% and 90.7%, respectively.
Consider `CCOC(=O)C1=C(C)N=c2sc(=Cc3ccccc3O)c(=O)n2C1c1ccc(OC)c2ccccc12` (stereo not shown) [MMV666604], for which the “HepG2 Tox% @ 50 uM rep1” value in series [4] was -8%. Moreover, the inhibition at 50 µM in series [2] (setting [7]) was 53%; in series [2] (setting [8]), 33%; in series [5] it was -7.73%.
In the same order, the values of `CCOc1ccc(N2C(N)=NC(N)=NC2(C)C)cc1` [MMV667486] are -13%, 21%, 22% and -13.4%.
In the same order, the values of `CN(C)c1ccc(N2C(N)=NC(N)=NC2(C)C)cc1` [MMV667487] are -9%, 71%, 82% and -8.72%.
